Laboratory results as given in PubChem BioAssay AID330 (DTP/NCI, 2004).
Where “and” joins values, the source holds several entries; their conditions need not be identical. Equal entries are not always repeated. Inconclusive results and toxic doses are left out. Rule for the calls: active = survival T/C of 150% or more; inactive = T/C below 125% in these data.

Tested on: P388 leukemia ip, CD2F1 mice, survival T/C
Assay: NCI In Vivo Anticancer Drug Screen. Data for tumor model P388 Leukemia (intraperitoneal) in CD2F1 (CDF1) mice
Settings: endpoint: median survival time, higher = longer survival
Procedure, shortened: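 Mice carrying the transplanted tumor received test compound or vehicle. Survival was recorded in each group, and the value is the treated-group measurement divided by that of the vehicle-treated control group.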

[1] = dose: 200.0 mg/kg/injection, schedule: Q01DX009 (ip), vehicle: Klucel (hydroxypropylcellulose) (HPC)
[2] = dose: 50.0 mg/kg/injection, schedule: Q01DX005 (ip), vehicle: Klucel (hydroxypropylcellulose) (HPC)
[3] = dose: 100.0 mg/kg/injection, schedule: Q01DX005 (ip), vehicle: Klucel (hydroxypropylcellulose) (HPC)
[4] = dose: 100.0 mg/kg/injection, schedule: Q01DX009 (ip), vehicle: saline
[5] = dose: 200.0 mg/kg/injection, schedule: Q01DX009 (ip), vehicle: saline
[6] = dose: 12.5 mg/kg/injection, schedule: Q01DX005 (ip), vehicle: saline with Tween-80
[7] = dose: 50.0 mg/kg/injection, schedule: Q01DX009 (ip), vehicle: saline
[8] = dose: 50.0 mg/kg/injection, schedule: Q01DX009 (ip), vehicle: saline with Tween-80
[9] = dose: 100.0 mg/kg/injection, schedule: Q01DX009 (ip), vehicle: saline with Tween-80
[10] = dose: 200.0 mg/kg/injection, schedule: Q01DX009 (ip), vehicle: saline with Tween-80
[11] = dose: 50.0 mg/kg/injection, schedule: Q01DX005 (ip), vehicle: saline with Tween-80
[12] = dose: 100.0 mg/kg/injection, schedule: Q01DX005 (ip), vehicle: saline with Tween-80
[13] = dose: 200.0 mg/kg/injection, schedule: Q01DX005 (ip), vehicle: saline with Tween-80

Measured: T/C

CCCCCCCCC(=O)c1c(OC)oc(/C=N/NC(N)=S)cc1=O
inactive: dose: 100.0 mg/kg/injection, schedule: Q01DX009 (ip), vehicle: Klucel (hydroxypropylcellulose) (HPC) 86 % of control | [1] 91 % of control | dose: 400.0 mg/kg/injection, schedule: Q01DX009 (ip), vehicle: Klucel (hydroxypropylcellulose) (HPC) 98 % of control

CCOC(=O)C(=CNc1ccc2c(C)cc3ccc(C(=O)OCC)c(=O)n3c2n1)C(=O)OCC
inactive: [2] 88 % of control | [3] 86 % of control

CCOC(=O)C(C#N)C1(O)C(=O)Nc2ccccc21 (stereo not given)
inactive: [2] 104 % of control | [3] 102 % of control | dose: 200.0 mg/kg/injection, schedule: Q01DX005 (ip), vehicle: Klucel (hydroxypropylcellulose) (HPC) 103 % of control

CCOC(=O)c1c(-c2ccc3c(c2)OCO3)[nH][nH]c1=O
inactive: dose: 100.0 mg/kg/injection, schedule: Q04DX002 (ip), vehicle: saline 101 % of control | dose: 200.0 mg/kg/injection, schedule: Q04DX002 (ip), vehicle: saline 99 % of control

COc1cc(/C=N/n2cnnc2)cc(OC)c1OC
inactive: [4] 100 % of control | [5] 108 % of control | dose: 400.0 mg/kg/injection, schedule: Q01DX009 (ip), vehicle: saline 100 % of control

CCOP(=O)(NN)OCC
inactive: dose: 25.0 mg/kg/injection, schedule: Q04DX003 (ip), vehicle: saline 114 % of control | dose: 50.0 mg/kg/injection, schedule: Q04DX003 (ip), vehicle: saline 97 % of control | dose: 100.0 mg/kg/injection, schedule: Q04DX003 (ip), vehicle: saline 106 % of control | dose: 200.0 mg/kg/injection, schedule: Q04DX003 (ip), vehicle: saline 103 % of control

CCCCCCCCCCCCCCCCCCOCC(COP(=O)([O-])OCC[N+](C)(C)C)OC (stereo not given)
inactive: dose: 3.12 mg/kg/injection, schedule: Q01DX009 (ip), vehicle: saline 103 % of control | dose: 6.25 mg/kg/injection, schedule: Q01DX009 (ip), vehicle: saline 109 % of control | [6] 109 % of control | dose: 12.5 mg/kg/injection, schedule: Q01DX009 (ip), vehicle: saline 107 % of control and 117 % of control | dose: 25.0 mg/kg/injection, schedule: Q01DX009 (ip), vehicle: saline 122 % of control and 124 % of control | [7] 88 % of control

COc1ccc(CN2CCCN(/N=C/c3c4c(O)c5c(O)c(C)c6c(c5c3O)C(=O)C(C)(O/C=C/C(OC)C(C)C(OC(C)=O)C(C)C(O)C(C)C(O)C(C)/C=C/C=C(C)C(=O)N4)O6)CC2)cc1 (stereo not given)
inactive: dose: 12.5 mg/kg/injection, schedule: Q01DX009 (ip), vehicle: saline with Tween-80 109 % of control | dose: 25.0 mg/kg/injection, schedule: Q01DX009 (ip), vehicle: saline with Tween-80 117 % of control | [8] 103 % of control and 97 % of control | [9] 100 % of control | [10] 97 % of control

CN(C)c1ccc(C2=C(c3ccccc3)C(=O)C3(c4ccccc4)CC23c2ccc(N(C)C)cc2)cc1 (stereo not given)
inactive: dose: 50.0 mg/kg/injection, schedule: Q01DX005 (ip), vehicle: Klucel + Tween-80 92 % of control | dose: 100.0 mg/kg/injection, schedule: Q01DX005 (ip), vehicle: Klucel + Tween-80 90 % of control | dose: 200.0 mg/kg/injection, schedule: Q01DX005 (ip), vehicle: Klucel + Tween-80 90 % of control

Cc1c2oc(=O)cc(-c3ccccc3)c2cc2c(=O)ccoc12
inactive: [6] 97 % of control | dose: 25.0 mg/kg/injection, schedule: Q01DX005 (ip), vehicle: saline with Tween-80 92 % of control | [11] 97 % of control | [12] 86 % of control | [13] 86 % of control

CCCCCC(O)/C=C/[C@H]1C(O)CC2O/C(=C\CCCC(=O)O)C[C@@H]21 (stereo not given in full)
inactive: dose: 50.0 mg/kg/injection, schedule: Q01DX005 (ip), vehicle: saline 102 % of control | dose: 100.0 mg/kg/injection, schedule: Q01DX005 (ip), vehicle: saline 100 % of control | dose: 200.0 mg/kg/injection, schedule: Q01DX005 (ip), vehicle: saline 95 % of control

C=C1CC2(CC(C)CCC2C(=C)C)OC1=O (stereo not given)
inactive: dose: 100.0 mg/kg/injection, schedule: Q01DX001 (ip), vehicle: saline 101 % of control | dose: 200.0 mg/kg/injection, schedule: Q01DX001 (ip), vehicle: saline 102 % of control | dose: 400.0 mg/kg/injection, schedule: Q01DX001 (ip), vehicle: saline 99 % of control

CC(C)N1C(=O)c2ccccc2S1(Cl)c1ccccc1 (stereo not given)
inactive: dose: 100.0 mg/kg/injection, schedule: Q04DX003 (ip), vehicle: Klucel (hydroxypropylcellulose) (HPC) 101 % of control | dose: 200.0 mg/kg/injection, schedule: Q04DX003 (ip), vehicle: Klucel (hydroxypropylcellulose) (HPC) 98 % of control | dose: 400.0 mg/kg/injection, schedule: Q04DX003 (ip), vehicle: Klucel (hydroxypropylcellulose) (HPC) 98 % of control

CCN(CC)P(=O)(c1cccn1C)c1cccn1C
inactive: [8] 100 % of control | [9] 102 % of control | [10] 97 % of control

O=C(O)c1ccccc1SCCO
inactive: dose: 25.0 mg/kg/injection, schedule: Q01DX009 (ip), vehicle: Klucel (hydroxypropylcellulose) (HPC) 89 % of control | dose: 50.0 mg/kg/injection, schedule: Q01DX009 (ip), vehicle: Klucel (hydroxypropylcellulose) (HPC) 91 % of control | [1] 90 % of control

C=CCN1c2c(nc(N)[nH]c2=O)NCC1CNc1ccc(C(=O)NC(CCC(=O)O)C(=O)O)cc1 (stereo not given)
inactive: dose: 50.0 mg/kg/injection, schedule: Q04DX003 (ip), vehicle: alkali diluted with saline 113 % of control | dose: 100.0 mg/kg/injection, schedule: Q04DX003 (ip), vehicle: alkali diluted with saline 95 % of control | dose: 200.0 mg/kg/injection, schedule: Q04DX003 (ip), vehicle: alkali diluted with saline 111 % of control

O=C(SCCO)SCCO
inactive: [7] 86 % of control | [4] 89 % of control | [5] 88 % of control

CCOC(=O)CC(=O)c1ccoc1
inactive: [11] 110 % of control | [12] 105 % of control | [13] 110 % of control
